# Laboratory results taken from patent publication US20050048563A1, “Membrane molecule indicator compositions and methods” (Novasite Pharmaceuticals, Inc, priority 2000, published 2005).
# Columns and labels:
# PLC = type: cell-based, mouse
# [1] = system: adrenal glomerulosa cells; experiment: Confocal PLCδ1PH-GFP translocation in adrenal glomerulosa cells; type: cell-based, bovine; settings: angiotensin II stimulation, 2 mM Sr^2+ or Ca^2+
compound,measurement,setting,value
aluminum fluoride [A1F^4−],desensitization of PLC activation,PLC,no desensitization
same,onset of PLC activation,PLC,slow
neurokinin A [NKA],desensitization of PLC activation on repeated NKA pulses,PLC,incremental partial homologous desensitization
same,translocation of the probe (PLC activation profile),PLC,fast and near-complete translocation
"angiotensin II (DRVYIHPF; Angiotensin-2; UniProt P01019 25-32, looked up)",translocation of PLCδ1PH-GFP in presence of Sr^2+ versus Ca^2+,[1],not significantly different
NCCc1c[nH]cn1 [histamine],duration of translocation response,PLC,≥ 15 min
same,translocation amplitude relative to BK response control / BK-induced peak values,PLC,40%
"CCCCCCCC/C=C\CCCCCCCC(=O)OCC(O)COP(=O)(O)O (centres unmarked) [LPA, 1-oleoyl LPA]",translocation amplitude relative to BK response control / BK-induced peak values,PLC,25%
